From patent US20250195513A1, “DEGRADATION OF IRAK4 BY CONJUGATION OF IRAK4 INHIBITORS WITH E3 LIGASE LIGAND AND METHODS OF USE” (BeiGene, Ltd., priority 2022, published 2025)

What was measured:
[1] = biological target: T1, IRAK4 (Homo sapiens, UniProt Q9NWZ3); assay: IRAK4 Degradation Assay with Human Serum (Karpas299, HTRF/TR-FRET); assay type: cell-based; settings: Karpas-299 in human serum, 24 hrs treatment; for DC50: read-out: IRAK4 degradtion with human serum assay DC50; for Dmax: read-out: IRAK4 degradtion with human serum assay Dmax (%)
T1 construct: endogenous in cells; host or cells: Karpas299
T1 sequence (Q9NWZ3 1-460): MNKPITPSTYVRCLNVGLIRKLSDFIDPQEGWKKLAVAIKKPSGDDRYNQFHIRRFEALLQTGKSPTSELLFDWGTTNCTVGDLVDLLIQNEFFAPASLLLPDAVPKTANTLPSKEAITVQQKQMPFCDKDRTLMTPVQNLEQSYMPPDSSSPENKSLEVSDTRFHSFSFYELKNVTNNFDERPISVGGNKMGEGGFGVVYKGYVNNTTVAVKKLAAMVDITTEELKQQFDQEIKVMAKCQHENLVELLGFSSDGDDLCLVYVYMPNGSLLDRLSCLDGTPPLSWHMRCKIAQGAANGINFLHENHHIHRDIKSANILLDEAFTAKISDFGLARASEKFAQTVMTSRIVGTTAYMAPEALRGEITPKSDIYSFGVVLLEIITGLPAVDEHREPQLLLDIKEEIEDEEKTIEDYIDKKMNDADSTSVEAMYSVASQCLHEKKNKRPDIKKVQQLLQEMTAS
Procedure: IRAK4 degradation was measured using a TR-FRET-based method (Degorce, François, et al. Current chemical genomics. 2009, 3: 22). Karpas299 resuspended in Human serum AB (GEMINI, 100-512) were seeded into 96-well plates at the density of 0.2 million cells per well and then treated with a series dilution of compounds. After 24 hrs treatment, cells were pelleted via centrifugation and washed with PBS, add 40 μL lysis buffer (Cisbio) to each well after removal of the supernatant. Plates were then incubated at room temperature with shaking for 30 minutes. A total of 16 μL of cell lysates from each well of a 96-well plate was transferred to a 384-well white assay plate. IRAK4 level was quantitated using the HTRF kit as described by the manufacturer manual (Cisbio). FRET signals were measured using a PHERAstar FSX reader (BMG Labtech).
After treatment, add HTRF lysis buffer to each well; seal the plate and incubate 1 hour at room temperature on a plate shaker; Once the cells are lysed, 16 μL of cell lysate are transferred to a PE 384-well HTRF detection plate; 4 μL of pre-mixed HTRF antibodies are added to each well; Cover the plate with a plate sealer, spin 1000 rpm for 1 min, Incubate overnight at room temperature; Read on BMG PheraStar with HTRF protocol (337 nm-665 nm-620 nm).
The inhibition (degradation) percentage of the compound was calculated by the following equation: […]
The IC50 (DC50) value of a compound can be obtained by fitting the following equation
Wherein, X and Y are known values, and IC50, Hillslope, Top and Bottom are the parameters obtained by fitting with software. Y is the inhibition percentage (calculated from the equation), X is the concentration of the compound; IC50 is the concentration of the compound when the […] is reached. The smaller the IC50 value is, the stronger the inhibitory ability of the compound is. Vice versa, the higher the IC50 value is, the weaker the ability the inhibitory ability of the compound is; Hillslope represents the slope of the fitted curve, generally around 1 *; Bottom represents the minimum value of the curve obtained by data fitting, which is generally 0%±20%; Top represents the maximum value of the curve obtained by data fitting, which is generally 100%±20%. The experimental data were fitted by calculating and analyzing with Dotmatics data analysis software.

[2] = biological target: T1, IRAK4; assay: IRAK4 Degradation Assay (Karpas299, HTRF/TR-FRET); assay type: cell-based; settings: Karpas-299 cells, 24 h treatment; for Dmax: maximum percentage of degradation, read-out: IRAK4 in Karpas-299 (24 h) Dmax (%); for DC50: read-out: IRAK4 in Karpas-299 (24 h) DC50
Outline: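 Compound potency as DC50 (IC50) came from four-parameter fits of percent IRAK4 degradation. IRAK4 was measured by HTRF (665/620 nm) in lysates of Karpas299 cells seeded at 0.2 million per well. Cells had been treated with compound dilutions for 5 or 24 h.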

| DC50 [1] [nM] | Dmax [1] [%] | Dmax [2] [%] | DC50 [2] [nM] | SMILES |
| --- | --- | --- | --- | --- |
| 13 | 92 | 95 | 1.1 | COc1cc2nn([C@H]3CC[C@H](N4CCN(C5CCN(c6cc(F)c([C@H]7CCC(=O)NC7=O)c(F)c6)CC5)CC4)CC3)cc2cc1NC(=O)c1ccc2cc(C#N)cnn12 [Example 338, 3-cyano-N-(2-((1r,4r)-4-(4-(1-(4-((R)-2,6-dioxopiperidin-3-yl)-3,5-difluorophenyl)piperidin-4-yl)piperazin-1-yl)cyclohexyl)-6-methoxy-2H-indazol-5-yl)pyrrolo[1,2-b]pyridazine-7-carboxamide] |
| 3.5 | 99 | 96 | 0.7 | CC(C)(O)c1cc2nn([C@H]3CC[C@H](N4CCN(CC5CN(c6cc(F)c([C@H]7CCC(=O)NC7=O)c(F)c6)C5)CC4)CC3)cc2cc1NC(=O)c1coc2cccnc12 [Example 403, N-(2-((1r,4r)-4-(4-((1-(4-((R)-2,6-dioxopiperidin-3-yl)-3,5-difluorophenyl)azetidin-3-yl)methyl)piperazin-1-yl)cyclohexyl)-6-(2-hydroxypropan-2-yl)-2H-indazol-5-yl)furo[3,2-b]pyridine-3-carboxamide] |
| 19 | 94 | 96 | 6.7 | CC(C)(O)c1cc2nn([C@H]3CC[C@H](N4CCN([C@H]5C[C@H](c6ccc(N[C@@H]7CCC(=O)NC7=O)cc6)C5)CC4)CC3)cc2cc1NC(=O)c1ccc2cc(C#N)cnn12 [Example 272, 3-cyano-N-(2-((1R,4r)-4-(4-((1R,3R)-3-(4-(((R)-2,6-dioxopiperidin-3-yl)amino)phenyl)cyclobutyl)piperazin-1-yl)cyclohexyl)-6-(2-hydroxypropan-2-yl)-2H-indazol-5-yl)pyrrolo[1,2-b]pyridazine-7-carboxamide] |
| 3.2 | 102 | 98 | 0.6 | C[C@@H]1CN([C@H]2CC[C@H](n3cc4cc(NC(=O)c5ccc6cc(C#N)cnn56)c(C(C)(C)O)cc4n3)CC2)CCN1CC1CN(c2cc(F)c([C@H]3CCC(=O)NC3=O)c(F)c2)C1 [Example 310, 3-cyano-N-(2-((1R,4r)-4-((R)-4-((1-(4-((R)-2,6-dioxopiperidin-3-yl)-3,5-difluorophenyl)azetidin-3-yl)methyl)-3-methylpiperazin-1-yl)cyclohexyl)-6-(2-hydroxypropan-2-yl)-2H-indazol-5-yl)pyrrolo[1,2-b]pyridazine-7-carboxamide] |
| 8.4 | 94 | 96 | 2.9 | Cc1nc(C2CCC(=O)NC2=O)ccc1N1CCC(N2CCC3(CCC(n4cc5cc(NC(=O)c6ccc7cc(C#N)cnn67)c(C(C)(C)O)cc5n4)CC3)CC2)CC1 (centres unmarked) [Example 427, 3-cyano-N-(2-(3-(1-(6-(2,6-dioxopiperidin-3-yl)-2-methylpyridin-3-yl)piperidin-4-yl)-3-azaspiro[5.5]undecan-9-yl)-6-(2-hydroxypropan-2-yl)-2H-indazol-5-yl)pyrrolo[1,2-b]pyridazine-7-carboxamide] |
| 9.4 | 96 | 96 | 9.4 | CC(C)(O)c1cc2nn([C@H]3CC[C@H](N4CCN(C5CCN(c6cc(F)c(N7CCC(=O)NC7=O)c(F)c6)CC5)CC4)CC3)cc2cc1NC(=O)c1ccc2cc(C#N)cnn12 [Example 293, 3-cyano-N-(2-((1r,4r)-4-(4-(1-(4-(2,4-dioxotetrahydropyrimidin-1(2H)-yl)-3,5-difluorophenyl)piperidin-4-yl)piperazin-1-yl)cyclohexyl)-6-(2-hydroxypropan-2-yl)-2H-indazol-5-yl)pyrrolo[1,2-b]pyridazine-7-carboxamide] |
| 14 | 97 | 98 | 1.4 | C[C@@H]1CN([C@H]2C[C@H](c3cc(F)c([C@H]4CCC(=O)NC4=O)c(F)c3)C2)CCN1[C@H]1CC[C@H](n2cc3cc(NC(=O)c4ccc5cc(C#N)cnn45)c(C(C)(C)O)cc3n2)CC1 [Example 366, 3-cyano-N-(2-((1R,4r)-4-((R)-4-((1R,3R)-3-(4-((R)-2,6-dioxopiperidin-3-yl)-3,5-difluorophenyl)cyclobutyl)-2-methylpiperazin-1-yl)cyclohexyl)-6-(2-hydroxypropan-2-yl)-2H-indazol-5-yl)pyrrolo[1,2-b]pyridazine-7-carboxamide] |
| 9.2 | 99 | 98 | 1.9 | Cc1nc(C2CCC(=O)NC2=O)ccc1N1CCC(N2CCN(C34CCC(n5cc6cc(NC(=O)c7ccc8cc(C#N)cnn78)c(C(C)(C)O)cc6n5)(CC3)CC4)CC2)CC1 (centres unmarked) [Example 416, 3-cyano-N-(2-(4-(4-(1-(6-(2,6-dioxopiperidin-3-yl)-2-methylpyridin-3-yl)piperidin-4-yl)piperazin-1-yl)bicyclo[2.2.2]octan-1-yl)-6-(2-hydroxypropan-2-yl)-2H-indazol-5-yl)pyrrolo[1,2-b]pyridazine-7-carboxamide] |
| 11 | 99 | 96 | 0.5 | CC(C)(O)c1cc2nn([C@H]3CC[C@H](N4CCN(C5CCN(c6cc(F)c([C@H]7CCC(=O)NC7=O)c(F)c6)CC5)C[C@@H]4CO)CC3)cc2cc1NC(=O)c1ccc2cc(C#N)cnn12 [Example 399, 3-cyano-N-(2-((1R,4r)-4-((R)-4-(1-(4-((R)-2,6-dioxopiperidin-3-yl)-3,5-difluorophenyl)piperidin-4-yl)-2-(hydroxymethyl)piperazin-1-yl)cyclohexyl)-6-(2-hydroxypropan-2-yl)-2H-indazol-5-yl)pyrrolo[1,2-b]pyridazine-7-carboxamide] |
| 5.2 | 97 | 97 | 2.1 | COC[C@H]1CN([C@H]2CC[C@H](n3cc4cc(NC(=O)c5ccc6cc(C#N)cnn56)c(C(C)(C)O)cc4n3)CC2)CCN1C1CCN(c2ccc(C3CCC(=O)NC3=O)nc2C)CC1 (stereo partly drawn) [Example 422, 3-cyano-N-(2-((1R,4r)-4-((3R)-4-(1-(6-(2,6-dioxopiperidin-3-yl)-2-methylpyridin-3-yl)piperidin-4-yl)-3-(methoxymethyl)piperazin-1-yl)cyclohexyl)-6-(2-hydroxypropan-2-yl)-2H-indazol-5-yl)pyrrolo[1,2-b]pyridazine-7-carboxamide] |
| 19 | 98 | 98 | 1.3 | Cc1cc(N2CCC(N3CCN([C@H]4CC[C@H](n5cc6cc(NC(=O)c7ccc8cc(C#N)cnn78)c(C(C)(C)O)cc6n5)CC4)CC3)CC2)cc(C)c1[C@H]1CCC(=O)NC1=O [Example 289, 3-cyano-N-(2-((1r,4r)-4-(4-(1-(4-((R)-2,6-dioxopiperidin-3-yl)-3,5-dimethylphenyl)piperidin-4-yl)piperazin-1-yl)cyclohexyl)-6-(2-hydroxypropan-2-yl)-2H-indazol-5-yl)pyrrolo[1,2-b]pyridazine-7-carboxamide] |
